Assay results taken from PMC9849758, “Chemically diverse activity-based probes with unexpected inhibitory mechanisms targeting trypsin-like serine proteases” (Frontiers in Chemistry, 2023).
“Also recorded” adds a separate entry of the source. Counter-ions that a name gives are not always drawn.

Tests used:
β-tryptase = β-tryptase (Homo sapiens, UniProt P20231); assay: Jump dilution, determination of inhibition type; type: biochemical; set-up: purchased EnzoLife Sciences; conditions: inhibitor at 10 times IC50, 15 min, diluted 10-fold or 100-fold; Rev./Irrev.
Description: The dissociation of the enzyme-inhibitor complex was monitored by substrate hydrolysis over time ([Joossens et al., 2006]).
Because ABPs are designed to be irreversible serine protease inhibitors, the IC50 is exclusively used as a first discriminatory evaluation. When an inhibitor is irreversible, its IC50 value not only depends on the substrate and enzyme concentration but also on the time of incubation with the enzyme before the reaction is started by adding the substrate. […] The progress curve in the presence of an irreversible inhibitor will show final velocities equal to zero (Figure 6C). In contrast, for a reversible inhibitor, progress curves have a non-zero final steady-state velocity (Figure 6A) ([McWhirter, 2021]). To corroborate the inhibitory mechanism of the compounds, jump-dilution assays were performed. These use an inhibitor concentration of 10-fold the IC50 for the incubation, and a posteriori, the reaction mixture is diluted 10-fold or 100-fold before adding the substrate. In the case of an irreversible inhibitor, enzymatic activity is not regained (Figure 6D), whereas, in the case of a reversible compound, a slow release of the inhibitor and a gradual increase of the enzymatic activity rate is observed (Figure 6B) ([Copeland, 2013]; [McWhirter, 2021]). The jump-dilution assays confirmed the behavior described by the progress curves.
2.2.2 Jump dilution results
Supplementary Table 2. Jump dilution of selected alkyne and desthiobiotin probes against a panel of trypsin-like serine proteases. […]
# R R DtBa 3 tryptase Thrombin uPA CatG
32b H Alk Irrev. Irrev. Rev. Irrev. Rev.
45b DtB Irrev. Irrev. Rev. N.D. N.D.
33b Alk Irrev. Irrev. Rev. Irrev. Rev.
46b Cl DtB Irrev. Irrev. Rev. N.D. N.D.
34b H Alk Rev. Rev. Rev. Irrev. Rev.
50b DtB Rev. Rev. Rev. Irrev. Rev.
35b Alk Rev. Rev. Rev. Irrev. Rev.
52b NHCOMe DtB Rev. Rev. Rev. Irrev. Rev.
36b Alk Rev. Rev. Rev. Irrev. Rev.
54b Cl DtB Rev. Rev. Rev. Irrev. Rev.
37b Alk Irrev. Irrev. N.D. Irrev. Irrev.
55b H DtB Irrev. Irrev. N.D. Irrev. Irrev.
38b Alk Irrev. Irrev. N.D. Irrev. Irrev.
56b NHCOMe DtB Irrev. Irrev. N.D. Irrev. Irrev.
39b Alk Irrev. Irrev. N.D. Irrev. Rev.
57b Cl DtB Irrev. Irrev. N.D. Irrev. Rev.
41b H Alk Irrev. Irrev. Irrev. N.D. N.D.
31b Pro-Lys H Alk Irrev. Irrev. Irrev. Irrev. N.D. a Alk: ABP precursor bearing an alkyne; DtB: desthiobiotin probe b Panel of serine proteases abbreviations: urokinase plasminogen activator (uPA), cathepsin G (catG) N.D.: IC50 is greater than 10µM, and jump dilution was not performed
2.2.3 Progress curves and Jump dilution experiments
Kinetic assays were performed in the following manner. The inhibitor was mixed with the substrate, and the buffer solution with the enzyme was added at the time zero. The progress curves show the release of para-nitroaniline (pNA) or 7-amino-4-methyl coumarin (AMC) as a function of time.
To monitor the dissociation of the inhibitor-enzyme, aliquots of the enzyme were incubated at 37 °C without and with the inhibitor at a concentration 10 times higher than its IC 50. The enzyme […]
min, the aliquots were diluted 10-fold or 100-fold into the substrate concentration and assay buffer used for the IC50 determination. The dissociation of the enzyme-inhibitor complex was monitored by substrate hydrolysis over time. Blue lines represent the control where no inhibitor was present. Pink lines represent the assay with inhibitor.

CatG = biological target: T1, CatG (Homo sapiens, UniProt P08311); assay: Kinetic progress curves (kapp, mechanism); type: biochemical; set-up: Cathepsin G (cathepsin G human neutrophil, Sigma-Aldrich); purchased Sigma-Aldrich; host or cells: human neutrophil; conditions: for CatG mechanism of inhibition: defined by the progress curves: slow-binding (Rev.) or irreversible (Irrev.); for CatG kapp: apparent second-order rate constant from progress curves, mean ± SD
T1 sequence (P08311 21-255): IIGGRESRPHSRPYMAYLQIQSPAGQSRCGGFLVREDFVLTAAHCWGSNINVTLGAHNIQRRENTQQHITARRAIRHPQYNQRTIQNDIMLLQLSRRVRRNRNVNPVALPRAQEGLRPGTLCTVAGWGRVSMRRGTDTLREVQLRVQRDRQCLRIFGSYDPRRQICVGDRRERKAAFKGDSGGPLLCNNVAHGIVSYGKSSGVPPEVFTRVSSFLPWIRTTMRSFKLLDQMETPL
Description: Because the compounds described in this paper were previously described as irreversible inhibitors, the IC50 value is inversely correlated with the second-order rate constant of inactivation. For a simple pseudo-first-order inactivation process, the activity after incubation with inhibitor (vi) varies with the inhibitor concentration (i), as described in the following equation: vi=v0·e^−kit where v0 is the activity in the absence of an inhibitor, k is the second-order rate constant of inactivation, and t is the time. The inactivation rate constant was determined from the time course of inhibition.
Kinetic assays were performed in the following manner. The inhibitor was mixed with the substrate, and the buffer solution with the enzyme was added at the time zero. The progress curves show the release of pNA or AMC as a function of time. Initially, no inhibitor is bound to the enzyme, and the tangent to the progress curve (dA/dt) is proportional to the free enzyme concentration. The free enzyme concentration decreases over time due to inhibitor binding kinetics, as described above. Progress curves were recorded in pseudo-first-order conditions ([I]0>>[E]0) and with less than 10% conversion of the substrate during the entire time course. In these conditions, dA/dt decreases exponentially with time. The progress curves were fitted with the integrated rate equation with GraFit7 to yield a value for kobs, a pseudo-first-order rate constant. At=Ao+vs∙t+vi−vs∙1−e^−kobs∙t/kobs where At is the absorbance at time t, A0 is the absorbance at time zero, vi is the initial rate and vs is the velocity at the steady-state.
The apparent second-order rate constant (kapp) was calculated from the slope of the linear part of the plot of kobs vs. the inhibitor concentration ([I]0). In the case of competition between the inhibitor and the substrate, kapp is smaller than the “real” second-order rate constant k discussed above because a certain fraction of the enzyme is present as an enzyme-substrate complex. kapp depends on the substrate concentration used in the experiment, as described by [Lambeir et al. (1996)].
The apparent equilibrium constants were obtained from the following equations, vi/vo=1/1+I/K1; vS/vo=1/1+I/KI* where vi is the initial rate, vs is the steady-state velocity and vo is the uninhibited initial rate.

β-tryptase, sequence (P20231 31-275): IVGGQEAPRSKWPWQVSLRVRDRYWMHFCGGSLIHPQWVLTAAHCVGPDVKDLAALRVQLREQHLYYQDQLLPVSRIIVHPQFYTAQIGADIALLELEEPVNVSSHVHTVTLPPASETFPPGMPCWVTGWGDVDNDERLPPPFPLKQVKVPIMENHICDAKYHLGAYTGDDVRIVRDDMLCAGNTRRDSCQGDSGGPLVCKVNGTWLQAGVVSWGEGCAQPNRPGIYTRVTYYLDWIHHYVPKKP

**Q.** Which results are given for `C#CCCCOC(=O)NC(c1ccc(NC(=N)N)cc1)P(=O)(Oc1ccc(Cl)cc1)Oc1ccc(Cl)cc1` (stereo not shown) [39b, Pent-4-yn-1-yl ((bis(4-chlorophenoxy)phosphoryl)(4-guanidinophenyl)methyl)carbamate]?
**A.** β-tryptase jump dilution result (β-tryptase): Irrev.; CatG mechanism of inhibition (CatG): reversibly and Rev.

**Q.** Which results are given for `C#CCCCOC(=O)NC(c1ccc(NC(=N)N)cc1)P(=O)(Oc1ccc(NC(C)=O)cc1)Oc1ccc(NC(C)=O)cc1` (stereo not shown) [38b, Pent-4-yn-1-yl ((bis(4-acetamidophenoxy)phosphoryl)(4-guanidinophenyl)methyl) carbamate]?
**A.** β-tryptase jump dilution result (β-tryptase): Irrev.; CatG kapp (CatG): 14 × 10^2 ± 52 M^−1 s^−1; CatG mechanism of inhibition (CatG): Irrev.

**Q.** With `C#CCCCOC(=O)NC(CCCNC(=N)N)P(=O)(Oc1ccccc1)Oc1ccccc1` (stereo not shown) [32b] as the compound, how does the “β-tryptase jump dilution result” value (β-tryptase) read?
**A.** The value was “Irrev”.

**Q.** And the “CatG mechanism of inhibition” value (CatG)?
**A.** Its value is “* ^d Rev”.

**Q.** Which results are given for `CC(=O)Nc1ccc(OP(=O)(Oc2ccc(NC(C)=O)cc2)C(NC(=O)OCCCc2cn(CCOCCOCCOCCNC(=O)CCCCC[C@H]3NC(=O)N[C@H]3C)nn2)c2ccc(NC(=N)N)cc2)cc1` (stereo partly shown) [56b]?
**A.** β-tryptase jump dilution result (β-tryptase): Irrev; also recorded: Irreversible; CatG kapp (CatG): 420 ± 37 M⁻¹ s⁻¹; CatG mechanism of inhibition (CatG): Irrev.

**Q.** `C[C@@H]1NC(=O)N[C@@H]1CCCCCC(=O)NCCOCCOCCOCCn1cc(CCCOC(=O)NC(c2ccc(NC(=N)N)cc2)P(=O)(Oc2ccc(Cl)cc2)Oc2ccc(Cl)cc2)nn1` (stereo partly shown) [57b] was tested. Which “β-tryptase jump dilution result” value (β-tryptase) did it give?
**A.** The value was “Irrev”.

**Q.** What about the CatG kapp (CatG) of the same compound?
**A.** The CatG kapp was 11 × 10^2 ± 117 M^−1 s^−1.

**Q.** What about the “CatG mechanism of inhibition” value (CatG) of the same compound?
**A.** The value was “reversibly and Rev”.

**Q.** How did the “β-tryptase jump dilution result” value (β-tryptase) turn out when `C[C@@H]1NC(=O)N[C@@H]1CCCCCC(=O)NCCOCCOCCOCCn1cc(CCCOC(=O)NC(Cc2ccc(NC(=N)N)cc2)P(=O)(Oc2ccccc2)Oc2ccccc2)nn1` (stereo partly drawn) [50b, 3-(1-(18-((4R,5S)-5-methyl-2-oxoimidazolidin-4-yl)-13-oxo-3,6,9-trioxa-12-azaoctadecyl)-1H-1,2,3-triazol-4-yl)propyl (1-(diphenoxyphosphoryl)-2-(4-guanidinophenyl)ethyl)carbamate trifluoroacetate salt] was run?
**A.** The value was “Rev”.

**Q.** What about the “CatG mechanism of inhibition” value (CatG) of the same compound?
**A.** Its value is “* ^d Rev”.

**Q.** Which results are given for `CC(=O)Nc1ccc(OP(=O)(Oc2ccc(NC(C)=O)cc2)C(Cc2ccc(NC(=N)N)cc2)NC(=O)OCCCc2cn(CCOCCOCCOCCNC(=O)CCCCC[C@H]3NC(=O)N[C@H]3C)nn2)cc1` (stereo partly shown) [52b]?
**A.** β-tryptase jump dilution result (β-tryptase): Rev. and Reversible; CatG mechanism of inhibition (CatG): * ^d Rev.

**Q.** Which “β-tryptase jump dilution result” value (β-tryptase) does the source give for `C#CCCCOC(=O)NC(C1CCN(C(=N)N)CC1)P(=O)(Oc1ccccc1)Oc1ccccc1` (stereo not shown) [41b] here?
**A.** The value was “Irrev”.

**Q.** `C#CCCCOC(=O)NC(CCCNC(=N)N)P(=O)(Oc1ccc(Cl)cc1)Oc1ccc(Cl)cc1` (stereo not shown) [33b] was tested. Which “β-tryptase jump dilution result” value (β-tryptase) did it give?
**A.** Its value is “Irrev”.

**Q.** And the “CatG mechanism of inhibition” value (CatG)?
**A.** The value was “* ^d Rev”.

**Q.** With `C[C@@H]1NC(=O)N[C@@H]1CCCCCC(=O)NCCOCCOCCOCCn1cc(CCCOC(=O)NC(CCCNC(=N)N)P(=O)(Oc2ccccc2)Oc2ccccc2)nn1` (stereo partly shown) [45b] as the compound, how does the “β-tryptase jump dilution result” value (β-tryptase) read?
**A.** Its value is “Irrev”.

**Q.** Which “β-tryptase jump dilution result” value (β-tryptase) does the source give for `C[C@@H]1NC(=O)N[C@@H]1CCCCCC(=O)NCCOCCOCCOCCn1cc(CCCOC(=O)NC(c2ccc(NC(=N)N)cc2)P(=O)(Oc2ccccc2)Oc2ccccc2)nn1` (stereo partly shown) [55b] here?
**A.** Its value is “Irrev”.

**Q.** What about the CatG kapp (CatG) of the same compound?
**A.** Its CatG kapp is 301 ± 85 M⁻¹ s⁻¹.

**Q.** And the “CatG mechanism of inhibition” value (CatG)?
**A.** The value was “Irrev”.

**Q.** What does the source list for `C#CCCCOC(=O)NC(Cc1ccc(NC(=N)N)cc1)P(=O)(Oc1ccc(Cl)cc1)Oc1ccc(Cl)cc1` (stereo not shown) [36b]?
**A.** β-tryptase jump dilution result (β-tryptase): Rev.; CatG mechanism of inhibition (CatG): * ^d Rev.

**Q.** What does the source list for `C#CCCCOC(=O)NC(Cc1ccc(NC(=N)N)cc1)P(=O)(Oc1ccc(NC(C)=O)cc1)Oc1ccc(NC(C)=O)cc1` (stereo not shown) [35b]?
**A.** β-tryptase jump dilution result (β-tryptase): Rev.; CatG kapp (CatG): 477 ± 67 M⁻¹ s⁻¹; CatG mechanism of inhibition (CatG): Rev.

**Q.** How did the “β-tryptase jump dilution result” value (β-tryptase) turn out when `C#CCCCOC(=O)NC(Cc1ccc(NC(=N)N)cc1)P(=O)(Oc1ccccc1)Oc1ccccc1` (stereo not shown) [34b] was run?
**A.** The value was “Rev”.

**Q.** And the “CatG mechanism of inhibition” value (CatG)?
**A.** The value was “* ^d Rev”.

**Q.** For `C#CCCCOC(=O)NC(c1ccc(NC(=N)N)cc1)P(=O)(Oc1ccccc1)Oc1ccccc1.O=C(O)C(F)(F)F` (stereo not shown) [37b, Pent-4-yn-1-yl ((diphenoxyphosphoryl)(4-guanidinophenyl)methyl)carbamate trifluoroacetate salt], which “β-tryptase jump dilution result” value (β-tryptase) is on record?
**A.** Its value is “Irrev”.

**Q.** What about the CatG kapp (CatG) of the same compound?
**A.** The CatG kapp was 582 ± 2 M⁻¹ s⁻¹.

**Q.** And the “CatG mechanism of inhibition” value (CatG)?
**A.** The value was “Irrev”.

**Q.** Which results are given for `C[C@@H]1NC(=O)N[C@@H]1CCCCCC(=O)NCCOCCOCCOCCn1cc(CCCOC(=O)NC(Cc2ccc(NC(=N)N)cc2)P(=O)(Oc2ccc(Cl)cc2)Oc2ccc(Cl)cc2)nn1` (stereo partly shown) [54b]?
**A.** β-tryptase jump dilution result (β-tryptase): Rev.; CatG mechanism of inhibition (CatG): * ^d Rev.

**Q.** How did the “β-tryptase jump dilution result” value (β-tryptase) turn out when `C[C@@H]1NC(=O)N[C@@H]1CCCCCC(=O)NCCOCCOCCOCCn1cc(CCCOC(=O)NC(CCCNC(=N)N)P(=O)(Oc2ccc(Cl)cc2)Oc2ccc(Cl)cc2)nn1` (stereo partly shown) [46b] was run?
**A.** Its value is “Irrev”.
